The target of this experiment is T1, human T-type channel alpha-1H (CaV 3.2) (Homo sapiens, UniProt O95180).
T1 construct: expressed in transfected cells; host or cells: HEK 293
In words: Ca2+ Influx Assay (cell-based fluorescent, FDSS). The note with it: HEK 293 cells expressing human CaV 3.2. The procedure:
Inhibition of T-type calcium channel activity was determined by cell-based flu-orescent Ca^2+ influx assay, in which potassium ionophore was added to decrease resting membrane potential and extra-cellular high-K^+ stimulation was used to modulate the membrane potential of the cell. The changes in fluorescent signal were monitored by the cell imaging technology by Hamamatsu Photonics's Functional Drug Screening System (FDSS).
HEK 293 cells expressing the human T-type channel alpha-1H (CaV 3.2) were maintained in DMEM supplemented with 10% heat-inactivated FBS, 100 units/ml Penicillin, 100 microg/ml Streptomycin, 150 microg/ml Zeocin, 300 microg/ml Geneticin. The cells were grown in a 5% CO2 humidified incubator at 37° C.
• 1. Cells were harvested and seeded in a poly-D-lysine coated black-sided clear bottom 384-well plate at density of 10,000 cells/well at 24 hours prior to assay. • 2. Incubate at 37° C. in 5% CO2. Day Two: • 1. Wash each well with assay buffer (see below) and leave 20 RI using plate washer, ELx-405 Select CW (BIO-TEK). • 2. Add 20 μL of assay buffer containing 6 μM Fluo-4-AM (Molecular Probes) and 0.005% Pluronic F-127 to each well. • 3. Incubate the plate at 37° C. for 1 hour. • 4. Wash each well assay buffer (see below) and leave 20 μl using plate washer, ELx-405 Select CW (BIO-TEK). • 5. Add 10 μl of compound solution into each well by FDSS6000 and leave the plate for 4.5 min, and then add 10 μl of potassium ionophore solution. • 6. Add 20 μl of high-K^+ depolarizing solution (see below) and monitor the change of fluorescent signal.
The IC50 values for compounds of the present invention were determined from 7-point dose-response studies. Curves were generated using the average of duplicate wells for each data point. Finally, the IC50 values are calculated with the best-fit dose curve determined by XLfit.

The results in this text go back to patent US9101616B2, “Aryl substituted carboxamide derivatives as calcium or sodium channel blockers” (RaQualia Pharma Inc., priority 2009, dated 2015).

T1 sequence (O95180 whole entry): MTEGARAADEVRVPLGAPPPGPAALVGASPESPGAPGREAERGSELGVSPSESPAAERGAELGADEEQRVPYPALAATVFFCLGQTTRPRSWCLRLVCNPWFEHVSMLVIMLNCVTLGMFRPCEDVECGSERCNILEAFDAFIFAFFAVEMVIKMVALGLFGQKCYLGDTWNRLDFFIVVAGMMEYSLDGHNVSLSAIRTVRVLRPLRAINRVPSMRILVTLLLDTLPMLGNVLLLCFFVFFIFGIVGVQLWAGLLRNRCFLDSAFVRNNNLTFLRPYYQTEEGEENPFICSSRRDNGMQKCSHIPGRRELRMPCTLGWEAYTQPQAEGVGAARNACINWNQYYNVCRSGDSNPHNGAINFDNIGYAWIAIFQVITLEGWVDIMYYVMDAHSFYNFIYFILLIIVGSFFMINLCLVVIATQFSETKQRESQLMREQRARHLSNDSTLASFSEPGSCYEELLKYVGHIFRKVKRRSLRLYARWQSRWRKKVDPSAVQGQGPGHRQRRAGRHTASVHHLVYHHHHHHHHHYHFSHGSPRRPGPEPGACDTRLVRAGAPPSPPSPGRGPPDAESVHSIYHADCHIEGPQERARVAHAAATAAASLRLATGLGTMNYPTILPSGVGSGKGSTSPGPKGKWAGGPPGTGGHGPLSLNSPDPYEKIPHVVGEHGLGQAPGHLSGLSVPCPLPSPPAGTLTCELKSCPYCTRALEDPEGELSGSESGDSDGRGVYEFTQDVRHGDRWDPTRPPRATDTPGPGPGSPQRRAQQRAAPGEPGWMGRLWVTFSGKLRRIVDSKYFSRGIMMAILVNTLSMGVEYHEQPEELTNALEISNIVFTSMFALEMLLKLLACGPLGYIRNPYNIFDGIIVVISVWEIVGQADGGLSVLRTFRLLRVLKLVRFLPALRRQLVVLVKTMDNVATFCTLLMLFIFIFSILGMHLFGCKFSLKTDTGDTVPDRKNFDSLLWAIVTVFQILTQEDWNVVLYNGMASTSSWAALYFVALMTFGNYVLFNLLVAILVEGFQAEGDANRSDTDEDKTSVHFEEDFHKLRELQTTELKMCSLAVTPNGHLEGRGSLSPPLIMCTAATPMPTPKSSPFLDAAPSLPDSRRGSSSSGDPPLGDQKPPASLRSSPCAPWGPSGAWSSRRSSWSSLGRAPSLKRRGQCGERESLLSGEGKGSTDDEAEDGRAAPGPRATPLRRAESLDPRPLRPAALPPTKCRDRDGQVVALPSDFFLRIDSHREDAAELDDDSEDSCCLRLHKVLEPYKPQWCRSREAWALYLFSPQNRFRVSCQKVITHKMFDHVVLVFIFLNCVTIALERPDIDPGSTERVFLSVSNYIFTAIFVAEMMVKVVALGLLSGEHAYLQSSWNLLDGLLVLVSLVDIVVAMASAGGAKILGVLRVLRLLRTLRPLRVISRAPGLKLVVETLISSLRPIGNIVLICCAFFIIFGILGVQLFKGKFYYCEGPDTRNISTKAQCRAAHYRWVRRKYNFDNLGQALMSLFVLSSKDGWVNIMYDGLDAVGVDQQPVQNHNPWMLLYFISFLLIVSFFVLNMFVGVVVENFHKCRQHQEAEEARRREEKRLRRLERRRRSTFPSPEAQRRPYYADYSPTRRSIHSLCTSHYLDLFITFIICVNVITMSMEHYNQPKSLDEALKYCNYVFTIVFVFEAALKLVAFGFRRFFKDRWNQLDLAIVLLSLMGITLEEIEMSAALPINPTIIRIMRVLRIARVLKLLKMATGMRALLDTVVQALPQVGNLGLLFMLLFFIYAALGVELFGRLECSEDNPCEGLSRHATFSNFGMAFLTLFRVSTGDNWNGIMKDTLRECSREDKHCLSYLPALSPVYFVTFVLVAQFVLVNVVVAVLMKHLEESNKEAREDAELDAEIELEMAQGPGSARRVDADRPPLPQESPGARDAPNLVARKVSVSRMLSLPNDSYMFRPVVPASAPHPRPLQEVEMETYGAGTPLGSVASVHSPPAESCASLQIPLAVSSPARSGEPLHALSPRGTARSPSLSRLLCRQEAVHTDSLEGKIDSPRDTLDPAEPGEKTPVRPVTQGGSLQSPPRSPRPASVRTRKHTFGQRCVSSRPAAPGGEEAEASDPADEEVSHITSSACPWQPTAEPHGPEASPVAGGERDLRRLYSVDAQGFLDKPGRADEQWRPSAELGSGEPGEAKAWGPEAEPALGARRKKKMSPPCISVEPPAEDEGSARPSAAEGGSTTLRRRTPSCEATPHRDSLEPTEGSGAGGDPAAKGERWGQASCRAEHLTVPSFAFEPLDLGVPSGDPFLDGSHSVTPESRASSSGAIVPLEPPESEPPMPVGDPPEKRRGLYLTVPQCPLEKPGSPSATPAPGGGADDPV

Take `C[C@@H](NC(=O)[C@H]1C[C@@H]1c1nc2ccccc2[nH]1)c1ccc(OCC(F)(F)F)nc1` (relative stereo) [Example 287, (1S*,2S*)-2-(1H-benzo[d]imidazol-2-yl)-N-((R)-1-(6-(2,2,2-trifluoroethoxy)pyridin-3-yl)ethyl)cyclopropanecarboxamide]: the IC50 was ≤ 300 nM.
As for `C[C@@H](NC(=O)C1CC1COc1ccc(Cl)cc1)c1ccc(OCC(F)(F)F)cn1` (stereo in doubt) [Example 169, trans-2-((4-chlorophenoxy)methyl)-N-((R)-1-(5-(2,2,2-trifluoroethoxy)pyridin-2-yl)ethyl)cyclopropanecarboxamide], the figure is ≤ 300 nM; as for `Cc1cccc([C@H]2C[C@@H]2C(=O)N[C@H](C)c2ccc(OCC3CC3)cn2)c1` (relative stereo) [Example 267, (1S*,2S*)-N-((R)-1-(5-(cyclopropylmethoxy)pyridin-2-yl)ethyl)-2-m-tolylcyclopropanecarboxamide], ≤ 300 nM.
As for `C[C@@H](NC(=O)[C@H]1C[C@@H]1c1cccc2cc[nH]c12)c1cnc(OCC(F)(F)F)cn1` (relative stereo) [Example 322, (1S*,2S*)-2-(1H-indol-7-yl)-N-((R)-1-(5-(2,2,2-trifluoroethoxy)pyrazin-2-yl)ethyl)cyclopropanecarboxamide], the figure is ≤ 300 nM.
As for `C[C@@H](NC(=O)C1CC1c1ccc2ccn(C)c2c1)c1ccc(OCC(F)(F)F)cn1` (stereo in doubt) [Example 167, trans-2-(1-methyl-1H-indol-6-yl)-N-((R)-1-(5-(2,2,2-trifluoroethoxy)pyridin-2-yl)ethyl)cyclopropanecarboxamide], the figure is ≤ 300 nM; as for `C[C@@H](NC(=O)[C@@H]1C[C@H]1c1nc2ccccc2[nH]1)c1ccc(OCC(F)(F)F)cn1` (relative stereo) [Example 260, (1R*,2R*)-2-(1H-benzo[d]imidazol-2-yl)-N-((R)-1-(5-(2,2,2-trifluoroethoxy)pyridin-2-yl)ethyl)cyclopropanecarboxamide], ≤ 300 nM.
Take `C[C@@H](NC(=O)[C@H]1C[C@@H]1c1cccc(OCc2ccccn2)c1)c1ccc(OCC(F)(F)F)cn1` (relative stereo) [Example 306, (1S*,2S*)-2-(3-(pyridin-2-ylmethoxy)phenyl)-N-((R)-1-(5-(2,2,2-trifluoroethoxy)pyridin-2-yl)ethyl)cyclopropanecarboxamide]: the IC50 was ≤ 300 nM.
As for `C[C@@H](NC(=O)C1CC1c1cc2ccccc2[nH]1)c1ccc(OCC(F)(F)F)cn1` (stereo in doubt) [Example 124, trans-2-(1H-indol-2-yl)-N-((R)-1-(5-(2,2,2-trifluoroethoxy)pyridin-2-yl)ethyl)cyclopropanecarboxamide], the figure is ≤ 300 nM.
As for `C[C@@H](NC(=O)C1CC1c1cnc2ccccc2c1)c1ccc(OCC(F)(F)F)nc1` (stereo in doubt) [Example 211, trans-2-(quinolin-3-yl)-N-((R)-1-(6-(2,2,2-trifluoroethoxy)pyridin-3-yl)ethyl)cyclopropanecarboxamide], the figure is ≤ 300 nM; as for `C[C@@H](NC(=O)[C@H]1C[C@@H]1c1ccccc1)c1cnc(OCC(F)(F)F)cn1` (relative stereo) [Example 282, (1S*,2S*)-2-phenyl-N-((R)-1-(5-(2,2,2-trifluoroethoxy)pyrazin-2-yl)ethyl)cyclopropanecarboxamide], ≤ 300 nM.
`C[C@@H](NC(=O)C1CC1c1c[nH]c2ccc(C#N)cc12)c1ccc(OCC(F)(F)F)cn1` (stereo in doubt) [Example 111, trans-2-(5-cyano-1H-indol-3-yl)-N-((R)-1-(5-(2,2,2-trifluoroethoxy)pyridin-2-yl)ethyl)cyclopropanecarboxamide]: the IC50 was ≤ 300 nM.
As for `C[C@@H](NC(=O)[C@H]1C[C@@H]1c1c(F)cc(F)cc1F)c1ccc(OCC(F)(F)F)cn1` (relative stereo) [Example 250, (1S*,2S*)-N-((R)-1-(5-(2,2,2-trifluoroethoxy)pyridin-2-yl)ethyl)-2-(2,4,6-trifluorophenyl) cyclopropanecarboxamide], the figure is ≤ 300 nM; as for `C[C@@H](NC(=O)[C@H]1C[C@@H]1c1cc(F)cc(F)c1)c1ccc(OCC(F)(F)F)cn1` (relative stereo) [Example 253, (1S*,2S*)-2-(3,5-difluorophenyl)-N-((R)-1-(5-(2,2,2-trifluoroethoxy)pyridin-2-yl)ethyl)cyclopropanecarboxamide], ≤ 300 nM.
In the case of `C[C@@H](NC(=O)[C@H]1C[C@@H]1c1ccc(F)cc1Cl)c1ccc(OCC(F)(F)F)cn1` (relative stereo) [Example 246, (1S*,2S*)-2-(2-chloro-4-fluorophenyl)-N-((R)-1-(5-(2,2,2-trifluoroethoxy)pyridin-2-yl)ethyl)cyclopropanecarboxamide], the IC50 was ≤ 300 nM.
As for `C[C@@H](NC(=O)C1CC1c1cc2cc(F)ccc2[nH]1)c1ccc(OCC(F)(F)F)nc1` (stereo partly drawn) [Example 210, trans-2-(5-fluoro-1H-indol-2-yl)-N-((R)-1-(6-(2,2,2-trifluoroethoxy)pridin-3-yl)ethyl)cyclopropanecarboxamide], the figure is ≤ 300 nM.
As for `C[C@@H](NC(=O)[C@H]1C[C@@H]1c1c(F)cc(F)cc1F)c1cnc(OCC(F)(F)F)cn1` (relative stereo) [Example 271, (1S*,2S*)-N-((R)-1-(5-(2,2,2-trifluoroethoxy)pyrazin-2-yl)ethyl)-2-(2,4,6-trifluorophenyl) cyclopropanecarboxamide], the figure is ≤ 300 nM; as for `C[C@@H](NC(=O)C1CC1c1nc2ccccc2n1C)c1cnc(OCC(F)(F)F)cn1` (stereo in doubt) [Example 244, trans-2-(1-methyl-1H-benzo[d]imidazol-2-yl)-N-((R)-1-(5-(2,2,2-trifluoroethoxy)pyrazin-2-yl)ethyl)cyclopropanecarboxamide], ≤ 300 nM; as for `C[C@@H](NC(=O)[C@@H]1C[C@H]1c1cccc2[nH]ccc12)c1ccc(OCC(F)(F)F)cn1` (relative stereo) [Example 277, (1R*,2R*)-2-(1H-indol-4-yl)-N-((R)-1-(5-(2,2,2-trifluoroethoxy)pyridin-2-yl)ethyl)cyclopropanecarboxamide], ≤ 300 nM.
As for `C[C@@H](NC(=O)[C@H]1C[C@@H]1c1ccccc1)c1ccc(OCC(F)(F)F)cn1` (relative stereo) [Example 280, (1S*,2S*)-2-phenyl-N-((R)-1-(5-(2,2,2-trifluoroethoxy)pyridin-2-yl)ethyl)cyclopropanecarboxamide], the figure is ≤ 300 nM; as for `C[C@@H](NC(=O)[C@H]1C[C@@H]1COc1ccccc1)c1ccc(OCC(F)(F)F)nc1` (relative stereo) [Example 320, (1S*,2S*)-2-(phenoxymethyl)-N-((R)-1-(6-(2,2,2-trifluoroethoxy)pyridin-3-yl)ethyl)cyclopropanecarboxamide], ≤ 300 nM; as for `C[C@H](NC(=O)[C@@H]1C[C@H]1c1cccc(OCc2ccccc2)c1)c1ccc(OCC(F)(F)F)cn1` (stereo in doubt) [Example 346, (1R*,2R*)-2-(3-(benzyloxy)phenyl)-N-((S)-1-(5-(2,2,2-trifluoroethoxy)pyridin-2-yl)ethyl)cyclopropanecarboxamide], ≤ 300 nM.
With `C[C@@H](NC(=O)C1CC1c1c[nH]c2ccc(F)cc12)c1ccc(OCC(F)(F)F)cn1` (stereo in doubt) [Example 110, trans-2-(5-fluoro-1H-indol-3-yl)-N-((R)-1-(5-(2,2,2-trifluoroethoxy)pyridin-2-yl)ethyl)cyclopropanecarboxamide], the IC50 was ≤ 300 nM.
As for `C[C@@H](NC(=O)[C@H]1C[C@@H]1c1nc2ccccc2[nH]1)c1cnc(OCC(F)(F)F)cn1` (relative stereo) [Example 286, (1S*,2S*)-2-(1H-benzo[d]imidazol-2-yl)-N-((R)-1-(5-(2,2,2-trifluoroethoxy)pyrazin-2-yl)ethyl)cyclopropanecarboxamide], the figure is ≤ 300 nM.
As for `C[C@@H](NC(=O)COc1ccc(C(F)(F)F)cc1)c1ccc(OCC(F)(F)F)cn1` [Example 3, (R)-N-(1-(5-(2,2,2-trifluoroethoxy)pyridin-2-yl)ethyl)-2-(4-(trifluoromethyl)phenoxy)acetamide], the figure is ≤ 300 nM; as for `C[C@@H](NC(=O)C1CC1c1cc(F)cc(F)c1)c1ccc(OCC2CC2)cn1` (stereo partly drawn) [Example 193, trans-N-((R)-1-(5-(cyclopropylmethoxy)pyridin-2-yl)ethyl)-2-(3,5-difluorophenyl) cyclopropanecarboxamide], ≤ 300 nM; as for `C[C@@H](NC(=O)[C@H]1C[C@@H]1c1ccc(F)cc1Cl)c1cnc(OCC(F)(F)F)cn1` (relative stereo) [Example 268, (1S*,2S*)-2-(2-chloro-4-fluorophenyl)-N-((R)-1-(5-(2,2,2-trifluoroethoxy)pyrazin-2-yl)ethyl)cyclopropanecarboxamide], ≤ 300 nM.

By IC50 is commonly meant the concentration at which inhibition is half-maximal.
